Assay results: patent publication US20080262081A1, “Novel Use of Nutraceutical Compositions Comprising Resveratrol” (priority 2005, published 2008)

System: phosphorylated p70S6K (Thr389)
Assay: Phosphorylated p70S6K (Thr389) level in insulin-stimulated C3H10T1/2 cells (Western blot)
Format: cell-based, Mouse
Design: key to Phosphorylated p70S6K (Thr389) level, % vs. Vehicle: *: under detectable level
Conditions: for Phosphorylated p70S6K (Thr389) level, % vs. Vehicle: vehicle = 100%
Description: Mouse embryonic mesenchymal stem cells, C3H10T1/2 cells, (ATCC, USA, #CCL-226), were cultured in DMEM (low glucose […], Gibco), supplemented with 10% FBS and 2 mM L-Glutamine (Gibco). 2×10^5 cells /well were seeded in 6-well plate and grown to 80% confluency. Cells were treated with either rapamycin (Tocris, UK, #1292) at 100 nM, EGCG (TEAVIGO®, DSM Nutritional Product ltd. Switzerland) at 10 microM , resveratrol (DSM Nutritional Products Ltd. Switzerland) at 0.1, 1, 10 μM or combination of EGCG (10 microM) and resveratrol (0.1,1, 10 μM) for 30 min, then stimulated with insulin (Sigma, Switzerland) at 100 nM for 30 min. Cells were washed twice with PBS and harvested in 0.4 ml NETT buffer (0.1 M NaCl, 10 mM Tris-HCL (pH 7.6), 1 mM EDTA, 1% Triton X-100, pH 7.6 ). Cell lysates were sonicated and centrifuged at 14,000 rpm for 2 min. Protein concentration was determined using BCA assay (PIERCE, USA #23223). 10 microgram whole cell extracts were loaded on SDS-gel (10-20% Tricine gradient gel) and blotted on nitrocellulose membrane (0.2 μm pore, Invitrogen, #LC2000 ). Blot was incubated first with monoclonal antibody, phosphor-p70 S6 Kinase (Thr389)(1A5) mouse mAb (Cell signaling technology, #9206) at 1:2000 dilution, then with secondary antibody, goat anti-mouse IgG HRP (Santa Cruz, USA, #SC2055) at 1:10000. Protein load was control by measuring β-actin using anti mouse β-actin (Sigma, Switzerland, #A-5441). The signals were detected using ECL plus Western Blotting Detection System (Amersham Biosciences; RPN2132). Membrane was exposed to X-ray film for 30′ (Hyperfilm ECL; High performance chemiluminescence film, Amersham Biosciences; RPN1674 ) and films were scanned with ChemiGenius 2 machine (Syngene, UK). The signals were quantified by using GeneTools software (Syngene, UK). Signal of phosphorylated p70S6K was normalized to the protein load control β-actin, and vehicle was set up as 100%.

[1] = 10 μM single agent, insulin 100 nM

CO[C@H]1C[C@@H]2CC[C@@H](C)[C@@](O)(O2)C(=O)C(=O)N2CCCC[C@H]2C(=O)O[C@H]([C@H](C)C[C@@H]2CC[C@@H](O)[C@H](OC)C2)CC(=O)[C@H](C)/C=C(\C)[C@@H](O)[C@@H](OC)C(=O)[C@H](C)C[C@H](C)/C=C/C=C/C=C/1C [Rapa, rapamycin, reference compound]
Phosphorylated p70S6K (Thr389) level, % vs. Vehicle (100 nM, 30 min pretreatment then insulin 100 nM 30 min, normalized to β-actin): *

Oc1ccc(C=Cc2cc(O)cc(O)c2)cc1 [Resveratrol, resveratrol]
Phosphorylated p70S6K (Thr389) level, % vs. Vehicle (0.1 μM single agent, insulin 100 nM): 95.23% | Phosphorylated p70S6K (Thr389) level, % vs. Vehicle (1 μM single agent, insulin 100 nM): 106.9157% | Phosphorylated p70S6K (Thr389) level, % vs. Vehicle [1]: 132.715% | effect on phosphorylated p70S6K (Thr389) amount (in words) (0.1, 1 and 10 microM): no influence

(−)-epigallocatechin gallate [EGCG]
Phosphorylated p70S6K (Thr389) level, % vs. Vehicle [1]: 117.20% | effect on phosphorylated p70S6K (Thr389) amount (in words) (10 microM): little effect
